For assay [1], the target named is T1, TgLaforin (Toxoplasma gondii, UniProt S8F2K7).
T1 sequence (S8F2K7 1-523): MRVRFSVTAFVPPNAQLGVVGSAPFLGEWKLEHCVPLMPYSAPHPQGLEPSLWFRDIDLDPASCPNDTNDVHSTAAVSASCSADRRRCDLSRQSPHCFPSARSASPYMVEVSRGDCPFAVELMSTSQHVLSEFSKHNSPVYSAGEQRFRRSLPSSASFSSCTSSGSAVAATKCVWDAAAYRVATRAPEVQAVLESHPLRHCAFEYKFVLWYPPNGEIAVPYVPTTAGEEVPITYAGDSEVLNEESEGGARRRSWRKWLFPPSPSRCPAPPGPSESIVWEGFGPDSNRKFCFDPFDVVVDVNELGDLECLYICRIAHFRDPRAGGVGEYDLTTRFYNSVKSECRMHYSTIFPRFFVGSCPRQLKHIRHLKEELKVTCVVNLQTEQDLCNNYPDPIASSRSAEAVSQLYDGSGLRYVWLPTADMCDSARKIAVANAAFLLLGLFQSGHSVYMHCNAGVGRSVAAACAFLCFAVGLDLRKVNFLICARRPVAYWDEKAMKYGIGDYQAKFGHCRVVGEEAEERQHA
Kind of assay: pNPP phosphatase assay.

For a further assay, the target named is T2, PTP1B (Homo sapiens, UniProt P18031).
T2 sequence (P18031 1-435): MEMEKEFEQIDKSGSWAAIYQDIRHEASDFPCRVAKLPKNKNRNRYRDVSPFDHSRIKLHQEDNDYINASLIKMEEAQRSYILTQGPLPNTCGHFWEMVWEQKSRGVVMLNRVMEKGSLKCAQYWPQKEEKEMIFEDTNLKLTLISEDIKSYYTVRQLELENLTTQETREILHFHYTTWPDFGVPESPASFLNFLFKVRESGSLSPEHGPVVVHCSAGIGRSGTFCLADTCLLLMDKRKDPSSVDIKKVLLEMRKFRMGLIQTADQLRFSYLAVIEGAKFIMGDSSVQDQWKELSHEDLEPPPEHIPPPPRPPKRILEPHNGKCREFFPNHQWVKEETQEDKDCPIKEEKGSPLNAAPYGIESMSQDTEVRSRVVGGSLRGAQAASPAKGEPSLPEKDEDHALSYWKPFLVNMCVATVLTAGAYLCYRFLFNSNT
The assay is described as follows: Library screening at 10 μM. As to conditions: read-out: inhibition of PTP1B.

In assay [2] the target is T1, TgLaforin. The assay is described as follows: Radiolabeled (33P) starch phosphatase assay. As to conditions: 33P-labeled insoluble starch. The class given is biochemical. Here is the method:
Position-dependent phosphate release from ^33P-labeled starch was performed as previously described ([36], [41], [42], [43]). The substrate for this assay was generated by phosphorylating phosphate-free Arabidopsis sex1-3 starch with β^33P-labeled ATP (Hartmann Analytic) at the C6 and C3 positions sequentially. The starch granules were phosphorylated at the C6 position using purified recombinant StGWD enzyme. Next, the granules were phosphorylated at the C3 position using purified recombinant AtPWD enzyme.
To determine the site-specificity of TgLaforin, TgLaforin (1.3 nM) was incubated separately with 0.6 mg both C6- and C3-^33P-labeled starch in phosphatase buffer (pH 6.5) containing 1 mg/ml bovine serum albumin in a final volume of 150 μl. […] The amount of phosphate released from each starch suspension was quantified by measuring counts per minute (CPM) of the supernatant on a 1900 TR liquid scintillation counter (Packard). […]
(§1) L319-M21-M49 stock solutions were prepared by resuspending the inhibitor in DMSO at a concentration of 20 mM. […] The efficacy of L319-M21-M49 against various phosphatases was determined using the assay conditions described above. […] All reported uncertainties in IC50 values were calculated and presented as standard deviation from the mean of at least three independent replicates, each consisting of three technical replicates. […]

The next assay addresses VHR (Homo sapiens, UniProt P51452). Kind of assay: Library screening at 10 μM. The settings on record: read-out: inhibition of VHR.
For assay [3], the target named is T1, TgLaforin. The assay is described as follows: Library screening at 10 μM. The class given is biochemical.
Assay [4] deals with T1, TgLaforin. Kind of assay: Malachite green phosphatase assay, phosphate release from solubilized potato amylopectin. Format: biochemical. Here is the method: Release of phosphate from potato amylopectin was determined as done previously ([23], [24], [42], [93]) with the following modifications. Briefly, phosphate release was monitored using the PiColorLock Phosphate Detection Reagent (Novus Biologicals), a malachite green–based assay. For time course assays, 5 nM recombinant protein was incubated with 90 μg solubilized potato amylopectin (Sigma-Aldrich), supplied as a powder; solubilized at a stock concentration of 5 mg/ml using alcohol/alkaline method (also referred to as the “Roach method” in Ref. ([93])) in phosphatase buffer in a final volume of 80 μl at pH 6.5. […] After 5 min, 8 μl stabilizer solution (0.1 initial reaction volume) was added, and reaction was allowed to develop for 30 min at r.t. before the absorbance of each reaction was measured at 635 nm using a Synergy HTX Multi-Mode Reader (BioTek). Absorbance was converted to pmol Pi release using a Pi absorbance standard curve. […]
as §1

In a further assay the test system is TgCBM K206A. Kind of assay: Differential scanning fluorimetry carbohydrate binding. The settings on record: DSF. Background: In DSF a fluorescence change marks the thermal transition of the protein.
In the next assay the target is TgCBM (Toxoplasma gondii, UniProt S8F2K7). The assay is described as above. Here is the method:
We next analyzed TgCBM using size-exclusion chromatography coupled with multiangle light scattering (SEC-MALS) to define its oligomerization state. […] To define TgCBM carbohydrate binding, we utilized differential scanning fluorimetry (DSF) ([53], [54]). In the presence of a carbohydrate, an increase in Tm is associated with increased protein stability due to protein–ligand interaction. We incubated TgCBM with the linear oligosaccharide maltohexaose and observed a robust dose-dependent stabilization of TgCBM with an Kd,app = 20 ± 4 mM (Fig. 3E).

A further assay has as its system TgCBM W278A. The assay is described as above. The settings on record: DSF.

A value given as a limit tells only on which side of the number the result lay.

Sequence of VHR (P51452 whole entry, species assumed): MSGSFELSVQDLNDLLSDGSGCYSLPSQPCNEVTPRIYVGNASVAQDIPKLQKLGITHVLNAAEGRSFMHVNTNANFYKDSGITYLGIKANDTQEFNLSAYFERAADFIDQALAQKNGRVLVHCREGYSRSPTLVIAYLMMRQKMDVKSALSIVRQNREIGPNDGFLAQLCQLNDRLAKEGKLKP

What is called IC50 is the point on the concentration scale where inhibition reaches its midpoint. The inhibition is the relative decrease from the control value, in per cent. Regarding `O=C(Nc1ccc(Oc2ccccc2)cc1)C(=O)Nc1ccccc1NC(=O)C(c1ccccc1)S(=O)(=O)O` (stereo not drawn) [L319-21-M49, 2-oxo-2-((2-(2-oxo-2-((4-phenoxyphenyl)amino)acetamido)phenyl)amino)-1-phenylethanesulfonic acid], the IC50 against TgLaforin [1] was 1.5 ± 0.3 µM; at TgLaforin [2] (C3, read-out: IC50 phosphate release from C3 position of starch) it was 6.7 ± 0.1 µM; at TgLaforin [2] (C6, read-out: IC50 phosphate release from C6 position of starch) it was 6.5 ± 1.4 µM; on TgLaforin [4], 5.1 ± 0.4 µM. Moreover, the “specificity for TgLaforin over other phosphatases” value at TgLaforin [1] (pNPP assay, other phosphatases VHR, PTP1B, CIP) is reported as above 100 fold. In addition, at TgLaforin [1] (pNPP substrate), the “mechanism of inhibition (Lineweaver-Burk plot)” value is “competitive inhibitor”. In addition, the inhibition at 10 µM at PTP1B is below 10%; at VHR, below 10%; on TgLaforin [3], above 90%.
In general, Kd refers to the equilibrium constant for the complex coming apart. The low end stands for tighter binding, the high end for weaker binding. Regarding `OC[C@H]1O[C@H](O[C@H]2[C@H](O)[C@@H](O)[C@@H](O[C@H]3[C@H](O)[C@@H](O)[C@@H](O[C@H]4[C@H](O)[C@@H](O)[C@@H](O[C@H]5[C@H](O)[C@@H](O)[C@@H](O[C@H]6[C@H](O)[C@@H](O)C(O)O[C@@H]6CO)O[C@@H]5CO)O[C@@H]4CO)O[C@@H]3CO)O[C@@H]2CO)[C@H](O)[C@@H](O)[C@@H]1O` (stereo partly drawn) [maltohexaose], in the assay on TgCBM K206A, the “binding to K206A mutant” value is reported as “neither mutant was able to bind”. Moreover, the dissociation constant Kd at TgCBM came out at 20000 ± 4000 µM. In the assay on TgCBM W278A, the “binding to W278A mutant” value is recorded as “neither mutant was able to bind”.

Values taken from article PMC9254107, “The Toxoplasma glucan phosphatase TgLaforin utilizes a distinct functional mechanism that can be exploited by therapeutic inhibitors” (The Journal of Biological Chemistry, 2022).
